Test results as given in paper PMC10455244, “Alpha-Mangostin: A Potent Inhibitor of TRPV3 and Pro-Inflammatory Cytokine Secretion in Keratinocytes” (International Journal of Molecular Sciences, 2023).

Molecular target: T1, TRPV3 (Homo sapiens, UniProt Q8NET8)
T1 sequence (Q8NET8 1-790): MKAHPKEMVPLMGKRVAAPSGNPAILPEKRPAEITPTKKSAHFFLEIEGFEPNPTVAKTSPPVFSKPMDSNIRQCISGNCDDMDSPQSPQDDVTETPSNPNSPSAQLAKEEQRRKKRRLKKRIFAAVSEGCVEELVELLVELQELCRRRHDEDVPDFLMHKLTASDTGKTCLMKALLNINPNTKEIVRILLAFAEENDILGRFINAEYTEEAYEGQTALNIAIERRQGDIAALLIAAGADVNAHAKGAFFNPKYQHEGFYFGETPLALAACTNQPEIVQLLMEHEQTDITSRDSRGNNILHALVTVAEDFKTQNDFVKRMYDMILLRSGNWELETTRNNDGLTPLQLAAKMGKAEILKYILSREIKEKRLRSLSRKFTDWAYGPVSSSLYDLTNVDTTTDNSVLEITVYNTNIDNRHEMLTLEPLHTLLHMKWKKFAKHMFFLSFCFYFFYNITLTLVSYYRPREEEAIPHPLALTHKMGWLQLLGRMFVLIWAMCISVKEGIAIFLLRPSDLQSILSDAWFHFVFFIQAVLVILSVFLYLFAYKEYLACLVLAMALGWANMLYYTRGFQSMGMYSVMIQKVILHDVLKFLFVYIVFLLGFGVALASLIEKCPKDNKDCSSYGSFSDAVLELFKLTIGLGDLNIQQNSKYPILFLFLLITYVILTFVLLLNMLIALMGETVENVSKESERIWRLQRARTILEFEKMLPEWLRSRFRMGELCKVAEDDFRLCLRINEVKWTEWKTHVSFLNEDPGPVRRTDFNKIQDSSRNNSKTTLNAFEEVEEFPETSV
Experiment: Whole-cell patch-clamp, 2-APB-evoked TRPV3 current in hTRPV3-overexpressing HEK 293T cells
Type: cell-based
Design: expressed in transfected cells
Text: First, we used a conventional whole-cell patch-clamp to record the TRPV3 current in HEK 293T cells overexpressing hTRPV3. Then, different concentrations of alpha-mangostin were perfused into the cells to determine the effects of alpha-mangostin on the TRPV3 current. Alpha-mangostin inhibited 2-APB-evoked TRPV3 current, as shown in a representative cell in Figure 1A.
Figure 1 Alpha-mangostin (α-MG) inhibited the TRPV3 current. […] (A) Alpha-mangostin inhibited 2-APB-evoked current in a representative TRPV3 overexpressing HEK 293T cell. The channel was activated using 100 µM 2-APB and subsequently perfused with solutions containing different concentrations of alpha-mangostin with 100 µM 2-APB. A solution containing 10 µM ruthenium red (RR, a TRP channel inhibitor) and 100 µM 2-APB was perfused at the end. […] Currents were normalized to the maximum response to 2-APB at −100 mV. (C) Alpha-mangostin inhibited carvacrol-evoked current in a representative TRPV3-overexpressing HEK 293T cell. TRPV3 was activated using 1000 µM carvacrol and subsequently perfused with solutions containing different concentrations of alpha-mangostin with 1000 µM carvacrol. A solution containing 10 µM RR and 1000 µM carvacrol was perfused at the end. (D) Summary of normalized currents evoked by carvacrol with or without alpha-mangostin at −100 mV. Currents were normalized to the maximum response carvacrol at −100 mV. (E) Alpha-mangostin inhibited 2-APB-evoked current in NHEK. The channel was activated using 100 µM 2-APB and subsequently perfused with solutions containing different concentrations of alpha-mangostin with 100 µM 2-APB. A solution containing 10 µM 74a (a TRPV3 inhibitor) and 100 µM 2-APB was perfused at the end. […] The right panel summarizes normalized currents evoked by 2-APB with or without alpha-mangostin at −100 mV. Currents were normalized to the maximum response to 2-APB at −100 mV. Data are presented as means ± SEM. ** p < 0.01, *** p < 0.001, **** p < 0.0001.
HEK 293T cells were purchased from the American Type Culture Collection (Cat. No. CRL-3216, ATCC, Manassas, VA, USA). TRPV3-overexpressing HEK 293T cells were supplied by Prof. Wan Lee (Dongguk University College of Medicine, Gyeongju, South Korea). HEK 293T cells expressing TRPV3 mutants (G573S, G573C), TRPV4, TRPA1 were made by transient transfection. These cells were cultured in Dulbecco’s modified Eagle’s medium (DMEM, Welgene, Daegu, Korea) containing 10% fetal bovine serum (FBS; Welgene) and 1% penicillin/streptomycin (P/S; Life Technologies, Carlsbad, CA, USA). […]
[…] Sampling at 10 kHz and low-pass filtering at 5 kHz (w-c) were applied for all recorded currents. Recorded data were analyzed using Clampfit ver. […]

SMILES: COc1c(O)cc2oc3cc(O)c(CC=C(C)C)c(O)c3c(=O)c2c1CC=C(C)C [Alpha-mangostin]
- Inhibition of 2-APB-evoked TRPV3 currents (10 µM, 100 µM 2-APB, −100 mV, similar level to 10 µM ruthenium red): almost completely inhibited
- inhibition at 0.3 µM (HEK-293T, 0.3 µM, −100 mV, read-out: Inhibition percentage of TRPV3 current): 76.6%
- IC50 (hTRPV3-overexpressing HEK 293T, 100 µM 2-APB, at −100 mV, read-out: IC50, inhibition of 2-APB-induced TRPV3 current): 0.077 ± 0.013 µM
- Reversibility of inhibitory effect on TRPV3 current (wash out, 100 µM 2-APB, −60 mV holding potential): partly reversible
